Reference: US12668599B2, “Heterobifunctional compounds and methods of treating disease” (Halda Therapeutics OpCo, Inc., priority 2023, dated 2026)
One block for each molecule: values may come before it.

How the values were obtained:
[1] = system: VCaP cells; assay: Cellular growth inhibition assay for VCaP cells (CellTiter-Glo 2.0, 72 hours); type: cell-based, human; details: CellTiter-Glo 2.0
[2] = system: T-Rex 293 cell line SC3 cells lacking increased expression of androgen receptor protein; assay: Cellular growth inhibition, T-Rex 293 SC3 cells without doxycycline (CellTiter-Glo 2.0, 72 hours); type: cell-based; details: T-Rex 293 SC3 cells not exposed to doxycycline (no increased androgen receptor expression)
[3] = system: T-Rex 293 cell line SC3 cells having increased expression of androgen receptor protein due to exposure to doxycycline; assay: Cellular growth inhibition, T-Rex 293 SC3 cells with doxycycline-induced androgen receptor (CellTiter-Glo 2.0, 72 hours); type: cell-based; details: T-Rex 293 SC3 cells with 10 ng/ml doxycycline (increased androgen receptor expression), 72 hours, CellTiter-Glo 2.0

GI50 ([1]; Homo sapiens, VCaP, 72 h): < 500 nM
Structure (SMILES): COc1cc(O[C@H]2CC[C@H](NC(=O)c3cnc(N4CCC5(CCN(c6ccc(C7=N[C@@H](C)c8nnc(C)n8-c8sc(C)c(C)c87)cc6)CC5)C4)cn3)CC2)ccc1C#N [Compound I-39, N-((1r,4r)-4-(4-cyano-3-methoxyphenoxy)cyclohexyl)-5-(8-(4-((S)-2,3,6,9-tetramethyl-6H-thieno[3,2-f][1,2,4]triazolo[4,3-a][1,4]diazepin-4-yl)phenyl)-2,8-diazaspiro[4.5]decan-2-yl) pyrazine-2-carboxamide]
GI50 ([2]; 72 h): < 500 nM
GI50 [3]: < 500 nM

GI50 ([1]; Homo sapiens, VCaP, 72 h): < 500 nM
Structure (SMILES): COc1cc(O[C@H]2CC[C@H](NC(=O)c3ccc(N4CCC5(CCN(c6ccc(C7=N[C@@H](C)c8nnc(C)n8-c8sc(C)c(C)c87)c(F)c6)CC5)C4)nn3)CC2)ccc1C#N [Compound I-45, N-[4-(4-cyano-3-methoxy-phenoxy)cyclohexyl]-6-[8-[3-fluoro-4-[(9S)-4,5,9,13-tetramethyl-3-thia-1,8,11,12-tetrazatricyclo[8.3.0.0^2,6]trideca-2 (6),4,7,10,12-pentaen-7-yl]phenyl]-2,8-diazaspiro[4.5]decan-2-yl]pyridazine-3-carboxamide]
GI50 ([2]; 72 h): < 500 nM
GI50 [3]: < 500 nM

GI50 ([1]; Homo sapiens, VCaP, 72 h): < 500 nM
Structure (SMILES): COc1cc(O[C@H]2CC[C@H](NC(=O)c3ccc(N4CCC5(CCN(c6ccc(C7=N[C@@H](C)c8nnc(C)n8-c8sc(C)c(C)c87)cc6C)CC5)C4)nn3)CC2)ccc1C#N [Compound I-46, N-[4-(4-cyano-3-methoxy-phenoxy)cyclohexyl]-6-[8-[2-methyl-4-[(9S)-4,5,9,13-tetramethyl-3-thia-1,8,11,12-tetrazatricyclo[8.3.0.0^2,6]trideca-2 (6),4,7,10,12-pentaen-7-yl]phenyl]-2,8-diazaspiro[4.5]decan-2-yl]pyridazine-3-carboxamide]
GI50 ([2]; 72 h): < 500 nM
GI50 [3]: < 500 nM

GI50 ([1]; Homo sapiens, VCaP, 72 h): < 500 nM
Structure (SMILES): COc1cc(O[C@H]2CC[C@H](NC(=O)c3ccc(N4CCC5(CCC(c6ccc(C7=N[C@@H](C)c8nnc(C)n8-c8sc(C)c(C)c87)c(F)c6)CC5)C4)nn3)CC2)ccc1C#N (stereo partly drawn) [Compound I-59]
GI50 ([2]; 72 h): < 500 nM
GI50 [3]: < 500 nM

GI50 ([1]; Homo sapiens, VCaP, 72 h): < 500 nM
Structure (SMILES): COc1cc(O[C@H]2CC[C@H](NC(=O)c3ccc(N4CCC5(CCC(c6ccc(C7=N[C@@H](C)c8nnc(C)n8-c8sc(C)c(C)c87)c(C)c6)CC5)C4)nn3)CC2)ccc1C#N (stereo partly drawn) [Compound I-63]
GI50 ([2]; 72 h): < 500 nM
GI50 [3]: < 500 nM

GI50 ([1]; Homo sapiens, VCaP, 72 h): 500 to 1500 nM
Structure (SMILES): COc1cc(O[C@H]2CC[C@H](NC(=O)c3ccc(N4CCC5(CCC(c6ccc(C7=N[C@@H](C)c8nnc(C)n8-c8sc(C)c(C)c87)c(Cl)c6)CC5)C4)nn3)CC2)ccc1C#N (stereo partly drawn) [Compound I-65]
GI50 ([2]; 72 h): > 3000 nM
GI50 [3]: < 500 nM

GI50 ([1]; Homo sapiens, VCaP, 72 h): < 500 nM
Structure (SMILES): COc1cc(O[C@H]2CC[C@H](NC(=O)c3ccc(N4CCC5(CCN(c6ccc(C7=N[C@@H](C)c8nnc(C)n8-c8sc(C)c(C)c87)cc6)CC5)C4)nn3)CC2)ccc1C#N [Compound I-70]
GI50 ([2]; 72 h): < 500 nM
GI50 [3]: < 500 nM

GI50 ([1]; 72 hours): < 500 nM
Structure (SMILES): COc1cc(O[C@H]2CC[C@H](NC(=O)c3ccc(N4CCC5(CCN(c6ccc(C7=N[C@@H](C)c8nnc(C)n8-c8sc(C)c(C)c87)cc6)CC5)C4)nn3)CC2)ccc1C#N [Compound I-71]
GI50 [2]: < 500 nM
GI50 [3]: < 500 nM

GI50 ([1]; Homo sapiens, VCaP, 72 h): < 500 nM
Structure (SMILES): COc1cc(O[C@H]2CC[C@H](NC(=O)c3ccc(N4CCC5(CCN(c6ccc(C7=N[C@@H](C)c8nnc(C)n8-c8sc(C)c(C)c87)c(C)c6)CC5)C4)nn3)CC2)ccc1C#N [Compound I-72]
GI50 ([2]; 72 h): < 500 nM
GI50 [3]: < 500 nM

Continued, molecule first:

Structure (SMILES): COc1cc(O[C@H]2CC[C@H](NC(=O)c3cnc(N4CCC5(CCN(c6ccc(C7=N[C@@H](C)c8nnc(C)n8-c8sc(C)c(C)c87)cc6)CC5)C4)nc3)CC2)ccc1C#N [Compound I-37, N-((1r,4r)-4-(4-cyano-3-methoxyphenoxy)cyclohexyl)-2-(8-(4-((S)-2,3,6,9-tetramethyl-6H-thieno[3,2-f][1,2,4]triazolo[4,3-a][1,4]diazepin-4-yl)phenyl)-2,8-diazaspiro[4.5]decan-2-yl)pyrimidine-5-carboxamide]
GI50 ([1]; Homo sapiens, VCaP, 72 h): < 500 nM
GI50 ([2]; 72 h): < 500 nM
GI50 [3]: < 500 nM

Structure (SMILES): COc1cc(O[C@H]2CC[C@H](NC(=O)c3ccc(N4CCC5(CCN(c6ccc(C7=N[C@@H](C)c8nnc(C)n8-c8sc(C)c(C)c87)cc6)CC5)C4)nc3)CC2)ccc1C#N [Compound I-38]
GI50 ([1]; Homo sapiens, VCaP, 72 h): < 500 nM
GI50 ([2]; 72 h): < 500 nM
GI50 [3]: < 500 nM

Structure (SMILES): COc1cc(O[C@H]2CC[C@H](NC(=O)c3ccc(N4CC5(CC(C#Cc6ccc(C7=N[C@@H](C)c8nnc(C)n8-c8sc(C)c(C)c87)cc6)C5)C4)nn3)CC2)ccc1C#N [Compound I-40, N-[4-(4-cyano-3-methoxy-phenoxy)cyclohexyl]-6-[6-[2-[4-[(9S)-4,5,9,13-tetramethyl-3-thia-1,8,11,12-tetrazatricyclo[8.3.0.0^2,6]trideca-2 (6),4,7,10,12-pentaen-7-yl]phenyl]ethynyl]-2-azaspiro[3.3]heptan-2-yl]pyridazine-3-carboxamide]
GI50 ([1]; Homo sapiens, VCaP, 72 h): < 500 nM
GI50 ([2]; 72 h): < 500 nM
GI50 [3]: < 500 nM

Structure (SMILES): CC[C@@H]1N=C(c2ccc(C3CCC4(CC3)CCN(c3ccc(C(=O)NC5CCC(Oc6ccc(C#N)c(OC)c6)CC5)nn3)C4)cc2)c2c(sc(C)c2C)-n2c(C)nnc21 (stereo partly drawn) [Compound I-41, N-((1r,4r)-4-(4-cyano-3-methoxyphenoxy)cyclohexyl)-6-(8-(4-((S)-6-ethyl-2,3,9-trimethyl-6H-thieno[3,2-f][1,2,4]triazolo[4,3-a][1,4]diazepin-4-yl)phenyl)-2-azaspiro[4.5]decan-2-yl) pyridazine-3-carboxamide]
GI50 ([1]; 72 hours): < 500 nM
GI50 [2]: < 500 nM
GI50 [3]: < 500 nM

Structure (SMILES): COc1cc(O[C@H]2CC[C@H](NC(=O)c3ccc(N4C[C@H]5CN(c6ccc(C7=N[C@@H](C)c8nnc(C)n8-c8sc(C)c(C)c87)cc6)C[C@H]5C4)nn3)CC2)ccc1C#N [Compound I-47]
GI50 ([1]; Homo sapiens, VCaP, 72 h): < 500 nM
GI50 ([2]; 72 h): < 500 nM
GI50 [3]: < 500 nM

Structure (SMILES): COc1cc(O[C@H]2CC[C@H](NC(=O)c3ccc(N4C[C@]5(C)CN(c6ccc(C7=N[C@@H](C)c8nnc(C)n8-c8sc(C)c(C)c87)cc6)C[C@]5(C)C4)nn3)CC2)ccc1C#N [Compound I-48]
GI50 ([1]; Homo sapiens, VCaP, 72 h): < 500 nM
GI50 ([2]; 72 h): < 500 nM
GI50 [3]: < 500 nM

Structure (SMILES): COc1cc(O[C@H]2CC[C@H](NC(=O)c3ccc(N4CCC5(CCC(Oc6ccc(C7=N[C@@H](C)c8nnc(C)n8-c8sc(C)c(C)c87)cc6)C5)C4)nn3)CC2)ccc1C#N (stereo partly drawn) [Compound I-50]
GI50 ([1]; Homo sapiens, VCaP, 72 h): < 500 nM
GI50 ([2]; 72 h): < 500 nM
GI50 [3]: < 500 nM

Structure (SMILES): COc1cc(O[C@H]2CC[C@H](NC(=O)c3ccc(N4CCC5(CCC(Oc6ccc(C7=N[C@@H](C)c8nnc(C)n8-c8sc(C)c(C)c87)cc6)C5)C4)nn3)CC2)ccc1C#N (stereo partly drawn) [Compound I-51]
GI50 ([1]; 72 hours): < 500 nM
GI50 [2]: < 500 nM
GI50 [3]: < 500 nM

Structure (SMILES): COc1cc(O[C@H]2CC[C@H](NC(=O)c3ccc(N4CCC5(CCC(Oc6ccc(C7=N[C@@H](C)c8nnc(C)n8-c8sc(C)c(C)c87)cc6)C5)C4)nn3)CC2)ccc1C#N (stereo partly drawn) [Compound I-52]
GI50 ([1]; 72 hours): < 500 nM
GI50 [2]: < 500 nM
GI50 [3]: < 500 nM

Structure (SMILES): COc1cc(O[C@H]2CC[C@H](NC(=O)c3ccc(N4CCC5(CCC(c6ccc(C7=N[C@@H](C)c8nnc(C)n8-c8sc(C)c(C)c87)cc6)CC5)C4)cn3)CC2)ccc1C#N (stereo partly drawn) [Compound I-53]
GI50 ([1]; Homo sapiens, VCaP, 72 h): < 500 nM
GI50 ([2]; 72 h): < 500 nM
GI50 [3]: < 500 nM

Structure (SMILES): COc1cc(O[C@H]2CC[C@H](NC(=O)c3cnc(N4CCC5(CCC(c6ccc(C7=N[C@@H](C)c8nnc(C)n8-c8sc(C)c(C)c87)cc6)CC5)C4)cn3)CC2)ccc1C#N (stereo partly drawn) [Compound I-54, N-[4-(4-cyano-3-methoxy-phenoxy)cyclohexyl]-5-[8-[4-[(9S)-4,5,9,13-tetramethyl-3-thia-1,8,11,12-tetrazatricyclo[8.3.0.0^2,6]trideca-2 (6),4,7,10,12-pentaen-7-yl]phenyl]-2-azaspiro[4.5]decan-2-yl]pyrazine-2-carboxamide]
GI50 ([1]; Homo sapiens, VCaP, 72 h): < 500 nM
GI50 ([2]; 72 h): < 500 nM
GI50 [3]: < 500 nM

Structure (SMILES): COc1cc(O[C@H]2CC[C@H](NC(=O)c3ccc(N4CCC5(CCN(c6ccc(C7=N[C@@H](C)c8nnc(C)n8-c8sc(C)c(C)c87)cc6)CC5)C4)cc3)CC2)ccc1C#N [Compound I-55]
GI50 ([1]; Homo sapiens, VCaP, 72 h): < 500 nM
GI50 ([2]; 72 h): < 500 nM
GI50 [3]: < 500 nM

Structure (SMILES): COc1cc(O[C@H]2CC[C@H](NC(=O)c3ccc(N4CCC5(CCC(c6ccc(C7=N[C@@H](C)c8nnc(C)n8-c8sc(C)c(C)c87)cc6C)CC5)C4)nn3)CC2)ccc1C#N (stereo partly drawn) [Compound I-60]
GI50 ([1]; Homo sapiens, VCaP, 72 h): < 500 nM
GI50 ([2]; 72 h): < 500 nM
GI50 [3]: < 500 nM

Structure (SMILES): COc1cc(O[C@H]2CC[C@H](NC(=O)c3ccc(N4CCC5(CCC(c6ccc(C7=N[C@@H](C)c8nnc(C)n8-c8sc(C)c(C)c87)cc6C)CC5)C4)nn3)CC2)ccc1C#N (stereo partly drawn) [Compound I-61]
GI50 ([1]; 72 hours): < 500 nM
GI50 [2]: < 500 nM
GI50 [3]: < 500 nM

Structure (SMILES): COc1cc(O[C@H]2CC[C@H](NC(=O)c3ccc(N4CCC5(CCC(c6ccc(C7=N[C@@H](C)c8nnc(C)n8-c8sc(C)c(C)c87)cc6OC)CC5)C4)nn3)CC2)ccc1C#N (stereo partly drawn) [Compound I-67]
GI50 ([1]; 72 hours): < 500 nM
GI50 [2]: < 500 nM
GI50 [3]: < 500 nM

Structure (SMILES): COc1cc(O[C@H]2CC[C@H](NC(=O)c3ccc(N4CCC5(CCC(c6ccc(C7=N[C@@H](C)c8nnc(C)n8-c8sc(C)c(C)c87)c(OC)c6)CC5)C4)nn3)CC2)ccc1C#N (stereo partly drawn) [Compound I-68]
GI50 ([1]; Homo sapiens, VCaP, 72 h): < 500 nM
GI50 ([2]; 72 h): < 500 nM
GI50 [3]: < 500 nM

Structure (SMILES): COc1cc(O[C@H]2CC[C@H](NC(=O)c3ccc(N4CCC5(CCC(c6ccc(C7=N[C@@H](C)c8nnc(C)n8-c8sc(C)c(C)c87)c(OC)c6)CC5)C4)nn3)CC2)ccc1C#N (stereo partly drawn) [Compound I-69]
GI50 ([1]; 72 hours): < 500 nM
GI50 [2]: < 500 nM
GI50 [3]: < 500 nM
